Results reported in patent US8486647B2, “Neuropeptide release assay for sodium channels” (priority 2010, dated 2013).
“And” between values parts separate entries of the source, which are not always exact repeats. Equal entries are not always repeated.

Columns and labels:
Scn9a^3.1/3.1 DRG = test: CGRP release assay, Scn9a^3.1/3.1 DRG; format: cell-based, mouse
Scn9a^+/+ DRG = test: CGRP release assay, Scn9a^+/+ DRG; format: cell-based, mouse

| Compound | inflammatory mix-induced release of CGRP (Scn9a^3.1/3.1 DRG) | inflammatory mix-induced release of CGRP (Scn9a^+/+ DRG) | CGRP released (Scn9a^+/+ DRG) |
| --- | --- | --- | --- |
| CCN(CC)CC(=O)Nc1c(C)cccc1C [Lidocaine] | notably enhanced | – | – |
| NC1=N[C@H](O)[C@H]2[C@H]3O[C@]4(O)O[C@@H]([C@@H](O)[C@@]2(N1)[C@@H]4O)[C@]3(O)CO [TTX, Tetrodotoxin] | – | notably enhanced | – |
| ProTx-II [Pro-TXII] | – | notably enhanced | 186 ± 40 pg/mL and 126 ± 25 pg/mL |
